Measured values published in US20220160820A1, “MODULATORS OF COMPLEMENT ACTIVITY” (Ra Pharmaceuticals, Inc., priority 2019, published 2022).

How the values were obtained:
[1] = tested on: human C5 polymorphisms (including p.R885>H/C); experiment: Binding and inhibitory activities in presence of C5 polymorphisms; conditions: presence of clinically-relevant human C5 polymorphisms (including p.R885>H/C)
[2] = biological target: surface-bound C5b-9 or soluble membrane attack complex (sC5b-9) (Homo sapiens, UniProt P01031); experiment: Binding to C5b-9 / soluble membrane attack complex
[3] = tested on: Co-cultures of human myotubes and neuroblastoma cells; experiment: In vitro NMJ model: autoantibody-induced C5b-9 deposition by immunofluorescence; format: cell-based; conditions: 10 μM zilucoplan; anti-AChR 637 IgG1; human sera; anti-C5b-9 immunofluorescence
Method: Co-cultures of human myotubes and neuroblastoma cells were prepared and cultured with human sera as an in vitro NMJ model. […] Subsequent deposition of C5b-9 was observed by immunofluorescence using an anti-C5b-9 antibody (aE11, AbCam. Cambridge. UK).

[4] = In-vitro permeability, basement membrane model; format: in vitro ADME
From the text: In some embodiments, the present disclosure provides methods of inhibiting C5 activity in a tissue by contacting the tissue with a tissue-penetrating C5 inhibitor. As used herein, the term “tissue-penetrating” refers to a property characterized by tissue permeability. […] Tissue penetration may be assessed by ability to cross basement membranes. As used herein, the term “basement membrane” refers to an extracellular matrix (ECM) protein layer separating endothelial cells from underlying tissues. Tissue penetration assessments may be done in vivo or in vitro and may include the use of basement membrane models. Such models may include measuring compound diffusion across artificial basement membranes. Such models may include the use of upper and lower reservoirs separated by an artificial basement membrane. Artificial basement membranes may include any of the ECM gel membranes described in Arends, F. et al. 2016. IntechOpen, DOI: 10.5772/62519, the contents of which are herein incorporated by reference in their entirety. ECM gel membranes may be prepared to include matrix components mimicking those found in the basal lamina of neuromuscular junctions.
The ECM gel membrane was prepared to include matrix components mimicking those found in the basal lamina of neuromuscular junctions.

[5] = Quantitative whole body analysis (QWBA) of radiolabeled zilucoplan; format: in vivo; conditions: rats, 24 hours
Method: In some embodiments, compound permeability may be determined using quantitative whole body analysis (QWBA). QWBA is a form of analysis that uses radiography to assess distribution of radiolabeled analytes. In some embodiments, radiolabeled compounds are administered to subjects and tissue distribution of the compounds is analyzed over time.
Enhanced permeability of zilucoplan was confirmed by quantitative whole body analysis (QWBA). […] Area under the concentration curve (AUC) for each organ or tissue analyzed was expressed as a percentage of plasma AUC to yield a biodistribution value, presented in Table 2 below. […] 5:297-305, are provided for comparison.

[6] = In vivo drug-drug interaction study with cyclosporine A; conditions: following cyclosporine A administration; NHPs
[7] = In vivo drug-drug interaction study with anti-FcRn monoclonal antibody DX-2507; conditions: concomitant dosing of anti-FcRn monoclonal antibody DX-2507; Cynomolgus monkeys
From the text: (§1) By inhibiting FcRN, DX-2504 inhibits Fc-mediated recycling, thereby reducing the half-life of IgG antibodies. Administration of DX-2504 serves as a model for intravenous immunoglobulin (IVIG) treatment, which reduces the half-life of IgG antibodies by overwhelming the Fc recycling mechanism with large doses of immunoglobulin.

[8] = Zilucoplan levels in a patient receiving concomitant IVIG; format: in vivo, human; conditions: patient receiving concomitant therapeutic doses of IVIG
From the text: as §1

CCCCCCCCCCCCCCCC(=O)N[C@@H](CCC(=O)NCCOCCOCCOCCOCCOCCOCCOCCOCCOCCOCCOCCOCCOCCOCCOCCOCCOCCOCCOCCOCCOCCOCCOCCOCCCCC(=O)NCCCC[C@H](NC(=O)[C@@H](NC(=O)[C@@H]1CCCN1C(=O)[C@H](Cc1ccc(O)cc1)NC(=O)[C@H](CCC(=O)[O-])NC(=O)[C@H](Cc1c[nH]c2ncccc12)NC(=O)[C@H](Cc1ccc(O)cc1)NC(=O)[C@@H](NC(=O)[C@H](CC(=O)[O-])N(C)C(=O)[C@@H]1CC(=O)NCCCC[C@H](NC(C)=O)C(=O)N[C@@H](C(C)C)C(=O)N[C@@H](CCC(=O)O)C(=O)N[C@@H](CCCNC(=N)N)C(=O)N[C@@H](Cc2ccccc2)C(=O)N1)C(C)(C)C)C1CCCCC1)C(=O)[O-])C(=O)[O-].[Na+].[Na+].[Na+].[Na+] [zilucoplan]
binding and inhibitory activities [1]: not affected | binding to surface-bound C5b-9 or sC5b-9 [2]: does not bind | C5b-9 deposition [3]: absent | fraction introduced to upper reservoir diffused to lower reservoir ([4]; 24 hours): more than 60% | fraction introduced to upper reservoir diffused to lower reservoir ([4]; after 12 hours): Greater than 20% | Zilucoplan biodistribution % (tissue AUC as percentage of plasma AUC) ([5]; Bone): 15.3% | Zilucoplan biodistribution % (tissue AUC as percentage of plasma AUC) ([5]; Brain): 0.9% | Zilucoplan biodistribution % (tissue AUC as percentage of plasma AUC) ([5]; Fat): 16.2% | Zilucoplan biodistribution % (tissue AUC as percentage of plasma AUC) ([5]; Heart): 22.9% | Zilucoplan biodistribution % (tissue AUC as percentage of plasma AUC) ([5]; Large Intestine): 21.7% | Zilucoplan biodistribution % (tissue AUC as percentage of plasma AUC) ([5]; Liver): 27.1% | Zilucoplan biodistribution % (tissue AUC as percentage of plasma AUC) ([5]; Lung): 37.5% | Zilucoplan biodistribution % (tissue AUC as percentage of plasma AUC) ([5]; Lymph nodes): 12.8% | Zilucoplan biodistribution % (tissue AUC as percentage of plasma AUC) ([5]; Muscle): 7.0% | Zilucoplan biodistribution % (tissue AUC as percentage of plasma AUC) ([5]; Pancreas): 15.8% | Zilucoplan biodistribution % (tissue AUC as percentage of plasma AUC) ([5]; Small Intestine): 10.9% | Zilucoplan biodistribution % (tissue AUC as percentage of plasma AUC) ([5]; Spleen): 15.5% | Zilucoplan biodistribution % (tissue AUC as percentage of plasma AUC) ([5]; Stomach): 8.5% | Zilucoplan biodistribution % (tissue AUC as percentage of plasma AUC) ([5]; Testes): 15.5% | Zilucoplan biodistribution % (tissue AUC as percentage of plasma AUC) ([5]; Thymus): 7.8% | effects on zilucoplan exposure [6]: No effects | Zilucoplan pharmacodynamics [7]: did not change | Zilucoplan pharmacokinetics [7]: did not change | changes in zilucoplan levels [8]: no changes
